Experimental findings from patent US12679878B2, “CRF2 receptor agonists and their use in therapy” (SANOFI, priority 2020, dated 2026) are described below.

SMILES strings stand for the structures. Read-outs that look alike come from different tables or passages of the source. Starred links: 1 amine or outer side, 2 acyl side, 3 side chain; linkers in the order of their positions; H or OH if unused. Residues, ends and D or L forms follow the SMILES beside them. Groups on a side chain read outwards from the residue. *: point of attachment. C18 diacid = O=C(O)CCCCCCCCCCCCCCCCC(=O)*; γGlu = O=C(O)[C@H](CCC(=O)[*:2])N[*:1]; Palmitoyl = CCCCCCCCCCCCCCCC(=O)*; AEEA = NCCOCCOCC(=O)O

The nature of data set [1]: Solubility in buffer systems by UPLC-UV (Example 13). The format is physicochemical. In a few lines: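 Quantitation used UV peak area from UPLC of the 1:10-diluted supernatant, set against a reference-compound standard curve with extinction coefficients adjusted for amino acid sequence.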
In a further data set the target is T1, human CRF2α receptor (Homo sapiens, UniProt Q13324).
T1 construct: expressed in transfected cells; host or cells: TeloHEAC
T1 sequence (Q13324 1-411): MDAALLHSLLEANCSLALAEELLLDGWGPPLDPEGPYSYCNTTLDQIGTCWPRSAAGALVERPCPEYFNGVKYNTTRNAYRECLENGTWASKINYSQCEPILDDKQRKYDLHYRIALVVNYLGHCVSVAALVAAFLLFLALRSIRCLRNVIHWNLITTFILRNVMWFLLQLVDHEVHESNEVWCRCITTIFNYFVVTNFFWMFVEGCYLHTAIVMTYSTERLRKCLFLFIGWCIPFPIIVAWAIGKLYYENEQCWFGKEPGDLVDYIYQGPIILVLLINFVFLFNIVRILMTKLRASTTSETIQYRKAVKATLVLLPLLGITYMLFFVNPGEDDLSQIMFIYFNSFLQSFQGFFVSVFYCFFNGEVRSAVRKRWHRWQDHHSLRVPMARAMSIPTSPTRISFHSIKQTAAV
Put plainly: cAMP agonism at human CRF2 α receptor in TeloHEAC cells (Example 7). The format is cell-based. As to conditions: cAMP HTRF, TeloHEAC cells stably expressing human CRF2 α. In a few lines:
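Steps: thaw and wash cells; suspend in 1×HBSS, 20 mM HEPES, 0 or 0.1% HSA, 2 mM IBMX; add compound, 30 min RT; lyse with HTRF reagents, 1 h; read 665/620 nm. EC50 calculated, E% versus 1000 nM UCN2.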
For orientation: Time-resolved FRET reads energy transfer from a long-lived donor to a nearby acceptor.

For the next data set, the target named is T2, recombinant human CRF2 (Homo sapiens, UniProt Q13324).
T2 construct: expressed in transfected cells; host or cells: HEK
T2 sequence (Q13324 1-411): T1 sequence (Q13324 1-411)
Nature of the data set: CRF2a (h) agonist radioligand binding, [125]sauvagine, HEK cell membranes (Example 11). The following applies: for nH (Hill coefficient): competition with [125]sauvagine 0.1 nM. The method, then:
Receptor binding of the compounds was assessed using a CRF2a (h) (agonist radioligand) assay.
HEK cells expressing recombinant human CRF2 were used as a source of receptor for membrane preparation.
IC50 values (concentration causing a half-maximal inhibition of control specific binding) and Hill coefficients (nH) were determined by non-linear regression analysis of the competition curves generated with mean replicate values using Hill equation curve fitting. The inhibition constants (Ki) were calculated using the Cheng Prusoff equation [Ki=IC50/(1+L/KD) where L is the concentration of radioligand in the assay, and KD is the affinity of the radioligand for the receptor). A Scatchard plot was used to determine the KD.

The test system of another data set is rat CRF2R α receptor. Put plainly: cAMP agonism at rat CRF2R α receptor in A7R5 rat aortic smooth muscle cells (Example 8). The format is cell-based. As to conditions: cAMP HTRF, A7R5 rat aortic smooth muscle cell line, 0% HSA. In a few lines:
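Potency (EC50) is the concentration reaching half-maximal activation, with responses scaled so that 1000 nM urocortin 2 equals 100%. Intracellular cAMP was quantified by homogeneous time-resolved fluorescence at 665/620 nm, 1 h after lysis-buffer reagents. Compound stimulation lasted 30 min at room temperature on 2000 IBMX-treated (2 mM) cells per well in HEPES-buffered HBSS.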

A further data set deals with T3, CRF1R receptor (Homo sapiens, UniProt P34998).
T3 construct: host or cells: CHO-K1 clone 2
T3 sequence (P34998 24-415): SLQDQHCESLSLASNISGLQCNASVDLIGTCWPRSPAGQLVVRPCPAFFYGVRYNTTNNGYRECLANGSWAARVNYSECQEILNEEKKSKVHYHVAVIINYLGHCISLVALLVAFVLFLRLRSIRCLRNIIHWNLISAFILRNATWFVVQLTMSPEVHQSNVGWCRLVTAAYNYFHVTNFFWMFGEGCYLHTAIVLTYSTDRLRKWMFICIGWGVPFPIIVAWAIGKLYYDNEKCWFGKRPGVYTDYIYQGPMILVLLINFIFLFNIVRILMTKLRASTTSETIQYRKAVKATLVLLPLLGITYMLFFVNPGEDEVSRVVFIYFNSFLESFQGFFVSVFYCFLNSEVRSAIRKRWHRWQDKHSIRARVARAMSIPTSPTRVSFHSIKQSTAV
Put plainly: cAMP activity at anti-target CRF1R, CRF1R-overexpression CHO cell line (Example 9). The data set is classed as cell-based. In a few lines:
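Using thawed CRF1R-overexpressing CHO cells at 2000 per well, compound is applied for 30 min at RT in HBSS/HEPES buffer with IBMX. Cellular cAMP content is determined via HTRF, and percent activity is calculated against 1000 nM UCN2 defined as 100%.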

A short description of data set [2]: Chemical stability, purity loss by UPLC-UV after 28 days at 40° C. vs 5° C., pH 4.5 acetate buffer (Example 12). The data set is classed as physicochemical. As to conditions: 28 days 40° C. vs 5° C.; pH 4.5, 20 mM acetate buffer; 300 μM. In a few lines:
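300 μM compound (purity-corrected) in 20 mM acetate buffer, pH 4.5, stored 28 days at 5 and 40° C. Purity by UPLC-UV as compound peak area over total peak area. Value is the purity difference between 5° C. and 40° C. samples, relative to the 5° C. purity, in percent.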

Where [3] appears, read: pH 7.4, Solubility in Buffer C [mg/ml].
Where [4] appears, read: 0% HSA, read-out: EC50 [nM], 0% HSA.

As usually defined, the solubility is the dissolved amount per volume that the medium holds. As usually defined, the EC50 is the midpoint of the concentration-response curve. As for `CCCCCCCCCCCCCCCC(=O)N[C@@H](CCC(=O)NCCCC[C@H](NC(=O)[C@H](CC(C)C)NC(=O)[C@H](CCCCN)NC(=O)[C@@H](NC(=O)[C@@H]1CCCN1C(=O)[C@@H](NC(=O)[C@H](CC(=O)O)NC(=O)[C@H](CC(C)C)NC(=O)[C@H](CO)NC(=O)[C@H](CC(C)C)NC(=O)[C@@H](NC(=O)[C@@H](N)[C@@H](C)CC)C(C)C)C(C)C)[C@@H](C)CC)C(=O)N[C@@H](CCCCN)C(=O)N[C@H](C(=O)N[C@@H](CC(C)C)C(=O)N[C@@H](CC(C)C)C(=O)N[C@@H](CCC(=O)O)C(=O)N[C@@H](CCC(N)=O)C(=O)N[C@@H](CCC(=O)O)C(=O)N[C@@H](CCCCN)C(=O)N[C@@H](CCC(N)=O)C(=O)N[C@@H](CCCCN)C(=O)N[C@@H](CCCCN)C(=O)N[C@@H](CCC(N)=O)C(=O)N[C@@H](CCCNC(=N)N)C(=O)N[C@@H](CCC(=O)O)C(=O)N[C@@H](CCC(N)=O)C(=O)N[C@@H](C)C(=O)N[C@@H](CCC(=O)O)C(=O)N[C@H](C(=O)N[C@@H](CC(N)=O)C(=O)N[C@@H](CCCCN)C(=O)N[C@@H](CCC(N)=O)C(=O)N[C@H](C(=O)N[C@@H](CC(C)C)C(=O)N[C@@H](C)C(=O)N[C@@H](CCC(N)=O)C(=O)N[C@H](C(N)=O)C(C)C)[C@@H](C)CC)[C@@H](C)O)[C@@H](C)CC)C(=O)O` [compound 17] (H-IVLSLDVPIKLK([γGlu-Palmitoyl])KILLEQEKQKKQREQAETNKQILAQV-NH2; N-terminus assumed), in data set [1] (setting [3]), the solubility at 1 h was greater than 10700 µg/mL. For the same compound, on human CRF2α receptor (setting [4]), the EC50 amounted to 0.02 nM. Moreover, on recombinant human CRF2, the “nH (Hill coefficient)” value is on record as 1.5.

In general, Emax refers to the greatest response seen or fitted, relative to the assay's reference. For orientation: Ki means a measure of affinity in units of concentration, obtained from inhibition or displacement. For `CC[C@H](C)[C@H](NC(=O)[C@H](CCC(N)=O)NC(=O)[C@H](CCC(=O)O)NC(=O)[C@H](CC(C)C)NC(=O)[C@H](CC(C)C)NC(=O)[C@H](CCC(N)=O)NC(=O)[C@H](CCCCN)NC(=O)[C@H](CC(N)=O)NC(=O)[C@H](CCCCN)NC(=O)[C@H](CCC(=O)O)NC(=O)[C@H](C)NC(=O)[C@H](CCC(N)=O)NC(=O)[C@H](CCC(N)=O)NC(=O)[C@H](CCCNC(=N)N)NC(=O)[C@H](CCC(=O)O)NC(=O)[C@H](CCCCN)NC(=O)[C@H](CCCCN)NC(=O)[C@H](CCC(N)=O)NC(=O)[C@H](CCCCN)NC(=O)[C@H](CCC(N)=O)NC(=O)[C@H](CCC(N)=O)NC(=O)[C@H](CCCCN)NC(=O)[C@H](CC(C)C)NC(=O)[C@H](CC(C)C)NC(=O)[C@@H](NC(=O)[C@H](CCC(N)=O)NC(=O)[C@H](CCCCNC(=O)COCCOCCNC(=O)COCCOCCNC(=O)CC[C@H](NC(=O)CCCCCCCCCCCCCCCCC(=O)O)C(=O)O)NC(=O)[C@@H](NC(=O)[C@H](CCCCN)NC(=O)[C@@H](NC(=O)[C@@H]1CCCN1C(=O)[C@@H](NC(=O)[C@H](CC(=O)O)NC(=O)[C@H](CC(C)C)NC(=O)[C@H](CO)NC(=O)[C@H](CC(C)C)NC(=O)[C@@H](NC(=O)[C@@H](N)Cc1ccccc1)[C@@H](C)O)C(C)C)[C@@H](C)O)[C@@H](C)CC)[C@@H](C)CC)C(N)=O` [compound 51] (H-FTLSLDVPTKIK([AEEA-AEEA-γGlu-C18 diacid])QILLKQQKQKKERQQAEKNKQLLEQI-NH2; N-terminus assumed), the solubility at 1 h in data set [1] (Buffer B: 100 mM acetate buffer, pH 4.5, 2.7 mg/ml m-cresol, target 10 mg/ml, read-out: Solubility in Buffer B) is greater than 8800 µg/mL; in data set [1] (Buffer C: 100 mM phosphate buffer, pH 7.4, target 10 mg/ml, read-out: Solubility in Buffer C), greater than 7700 µg/mL. Besides, the EC50 in the data set on rat CRF2R α receptor came out at 0.87 nM; on human CRF2α receptor (setting [4]), 0.32 nM; at human CRF2α receptor (0.1% HSA, read-out: EC50 [nM], 0.1% HSA), 21.4 nM. In addition, at CRF1R receptor (CHO), the Emax amounted to 3.38%. Also, the Ki at recombinant human CRF2 was 4.3 nM. At recombinant human CRF2, the “nH (Hill coefficient)” value is recorded as 0.8.

Turning to `CC[C@H](C)[C@H](N)C(=O)N[C@H](C(=O)N[C@@H](CC(C)C)C(=O)N[C@@H](CO)C(=O)N[C@@H](CC(C)C)C(=O)N[C@@H](CC(=O)O)C(=O)N[C@H](C(=O)N1CCC[C@H]1C(=O)N[C@H](C(=O)N[C@@H](CCCCN)C(=O)N[C@@H](CC(C)C)C(=O)N[C@@H](CCCCNC(=O)COCCOCCNC(=O)COCCOCCNC(=O)CC[C@H](NC(=O)CCCCCCCCCCCCCCCCC(=O)O)C(=O)O)C(=O)N[C@@H](CCC(N)=O)C(=O)N[C@H](C(=O)N[C@@H](CC(C)C)C(=O)N[C@@H](CC(C)C)C(=O)N[C@@H](CCC(=O)O)C(=O)N[C@@H](CCC(N)=O)C(=O)N[C@@H](CCC(=O)O)C(=O)N[C@@H](CCCNC(=N)N)C(=O)N[C@@H](CCC(N)=O)C(=O)N[C@@H](CCCCN)C(=O)N[C@@H](CCCCN)C(=O)N[C@@H](CCC(N)=O)C(=O)N[C@@H](CCCNC(=N)N)C(=O)N[C@@H](CCC(=O)O)C(=O)N[C@@H](CCC(N)=O)C(=O)N[C@@H](C)C(=O)N[C@@H](CCC(=O)O)C(=O)N[C@H](C(=O)N[C@@H](CC(N)=O)C(=O)N[C@@H](CCCCN)C(=O)N[C@@H](CCC(N)=O)C(=O)N[C@H](C(=O)N[C@@H](CC(C)C)C(=O)N[C@@H](C)C(=O)N[C@@H](CCC(N)=O)C(=O)N[C@H](C(N)=O)C(C)C)[C@@H](C)CC)[C@@H](C)O)[C@@H](C)CC)[C@@H](C)CC)C(C)C)C(C)C` [compound 68] (H-IVLSLDVPIKLK([AEEA-AEEA-γGlu-C18 diacid])QILLEQERQKKQREQAETNKQILAQV-NH2; N-terminus assumed), in data set [2], the “Relative purity loss [%]” value was determined as 6.00%. For the same compound, the solubility at 1 h is greater than 9800 µg/mL in data set [1] (pH 4.5, Solubility in Buffer B [mg/ml]) and greater than 8900 µg/mL in data set [1] (setting [3]). The EC50 in the data set on rat CRF2R α receptor was 1.74 nM; on CRF1R receptor (0% HSA, CRF1R-overexpression CHO cell line), greater than 1000 nM; at human CRF2α receptor (setting [4]) it was 0.2 nM. For the same compound, on CRF1R receptor (CRF1R-overexpression CHO cell line, read-out: Emax (%)), the Emax was determined as 12.3%. For the same compound, on recombinant human CRF2, the “nH (Hill coefficient)” value is given as 0.8.
